pIC50: −log10 of the molar value. Read-outs that look alike come from different tables or passages of the source.
Molecular target: SARS-CoV-2 Papain-Like Protease (PLpro) (Severe acute respiratory syndrome coronavirus 2 (2019-nCoV) (SARS-CoV-2), UniProt P0DTD1)
Assay: biochemical
Conditions: read-out: PLpro IC50
[1] = SARS-CoV-2 PLpro enzymatic fluorescence assay
[2] = PLpro enzymatic fluorescence assay, class symbols

2-Methyl-5-((2-methylazetidin-2-yl)methoxy)-N-(1-(naphthalen-1-yl)cyclopropyl)benzamide [Compound 394]
pIC50 [1]: > 7.00

2-Methyl-N-(1-(naphthalen-1-yl)cyclopropyl)-5-(piperidin-2-ylmethoxy)benzamide [Compound 339]
pIC50 [1]: > 7.00

5-(2-Hydroxyethoxy)-2-methyl-N-(1-(naphthalen-1-yl)cyclopropyl)benzamide [Compound 393]
pIC50 [1]: 6.00 to 7.00

5-((1-(2-Hydroxyethyl)azetidin-2-yl)methoxy)-2-methyl-N-(1-(naphthalen-1-yl)cyclopropyl)benzamide [Compound 341]
pIC50 [1]: > 7.00

Cc1ccc(O[C@@H]2CC[C@@H]2N)cc1C(=O)NC1(c2cccc3ccccc23)CC1 (racemic) [Compound 406, rac-5-((1S,2R)-2-Aminocyclobutoxy)-2-methyl-N-(1-(naphthalen-1-yl)cyclopropyl)benzamide]
pIC50 [1]: > 7.00

Cc1ccc(OC[C@H]2C[C@@H](O)CN2)cc1C(=O)NC1(c2cccc3ccccc23)CC1 (racemic) [Compound 416, rac-5-(((2R,4R)-4-Hydroxypyrrolidin-2-yl)methoxy)-2-methyl-N-(1-(naphthalen-1-yl)cyclopropyl)benzamide]
pIC50 [1]: > 7.00

C=Cc1cc(C2(NC(=O)c3cc(O[C@@H](C)[C@@H]4CCN4C)ccc3C)CC2)c2cccnc2c1 (relative stereo) [Compound 757, 2-Methyl-5-((S)-1-((S)-1-methylazetidin-2-yl)ethoxy)-N-(1-(7-vinylquinolin-5-yl)cyclopropyl)benzamide]
pIC50 [1]: > 7.00

Cc1ccc(O[C@@H]2CCCC[C@H]2N)cc1CNC1(c2cccc3ccccc23)CC1 (single isomer, unassigned) [Compound 429]
pIC50 [2]: 6.00 to 7.00

Cc1ccc(OC[C@H]2C[C@@H](F)CN2)cc1C(=O)NC1(c2cccc3ccccc23)CC1 (single isomer, unassigned) [Compound 438]
pIC50 [1]: > 7.00

Cc1ccc(OC[C@H]2C[C@H](O)CN2C)cc1C(=O)NC1(c2cccc3ccccc23)CC1 (single isomer, unassigned) [Compound 439]
pIC50 [1]: > 7.00

Cc1ccc(OC[C@H]2C[C@@H](O)CN2C)cc1C(=O)NC1(c2cccc3ccccc23)CC1 (single isomer, unassigned) [Compound 440]
pIC50 [1]: > 7.00

Cc1ccc(OC[C@H]2C[C@H](F)CN2C)cc1C(=O)NC1(c2cccc3ccccc23)CC1 (single isomer, unassigned) [Compound 441]
pIC50 [1]: > 7.00

Cc1ccc(OC[C@H]2C[C@H](F)CN2)cc1C(=O)NC1(c2cccc3ccccc23)CC1 (single isomer, unassigned) [Compound 442]
pIC50 [1]: > 7.00

Cc1ccc(OC[C@@H]2CCN2C)cc1C(=O)NC1(c2cc(-c3ccco3)cc3ncccc23)CC1 (stereo in doubt) [Compound 604, N-(1-(7-(Furan-2-yl)quinolin-5-yl)cyclopropyl)-2-methyl-5-((1-methylazetidin-2-yl)methoxy)benzamide]
pIC50 [2]: > 7.00

Cc1ccc(NS(C)(=O)=O)cc1C(=O)N[C@H](C)c1cccc2ccccc12 [Compound 100, (R)-2-Methyl-5-(methylsulfonamido)-N-(1-(naphthalen-1-yl)ethyl)benzamide]
pIC50 [1]: < 5.30

Cc1ccc(O)cc1C(=O)N[C@H](C)c1cccc2ccccc12 [Compound 101, (R)-5-Hydroxy-2-methyl-N-(1-(naphthalen-1-yl)ethyl)benzamide]
pIC50 (PLpro 6.25 nM, substrate 25 μM, 60 min at 25° C., for more potent compounds PLpro 1 nM, 120 min): 5.30 to 6.00

Cc1cc2nc[nH]c2cc1C(=O)N[C@H](C)c1cccc2ccccc12 [Compound 102, (R)-5-Methyl-N-(1-(naphthalen-1-yl)ethyl)-1H-benzo[d]imidazole-6-carboxamide]
pIC50 [1]: 5.30 to 6.00

Cc1ccc([N+](=O)[O-])cc1C(=O)N[C@H](C)c1cccc2ccccc12 [Compound 104, (R)-2-Methyl-N-(1-(naphthalen-1-yl)ethyl)-5-nitrobenzamide]
pIC50 [2]: < 5.30

Cc1ccc([N+](=O)[O-])cc1C(=O)NC(c1cccc2ccccc12)C1CCOCC1 (stereo not shown) [Compound 105, 2-Methyl-N-(naphthalen-1-yl(tetrahydro-2H-pyran-4-yl)methyl)-5-nitrobenzamide]
pIC50 [1]: < 5.30

— patent US20250025443A1, “COMPOUNDS AND METHODS FOR TREATING CORONA VIRUSES” (CLEAR CREEK BIO, INC., priority 2021, published 2025)
